How the values were obtained:
[1] = molecular target: T1, Glucocorticoid receptor (GR) (Homo sapiens, UniProt P04150); experiment: Glucocorticoid receptor transactivation, MMTV-bla HeLa CELLSENSOR β-lactamase reporter, agonist mode; format: cell-based; conditions: for % Activation at 100 nM: GR, 5 hours; for greater potency compared to the parent molecule cortisol: GR signaling pathway, relative to cortisol
T1 construct: host or cells: MMTV-bla HeLa CELLSENSOR
T1 sequence (P04150 1-777): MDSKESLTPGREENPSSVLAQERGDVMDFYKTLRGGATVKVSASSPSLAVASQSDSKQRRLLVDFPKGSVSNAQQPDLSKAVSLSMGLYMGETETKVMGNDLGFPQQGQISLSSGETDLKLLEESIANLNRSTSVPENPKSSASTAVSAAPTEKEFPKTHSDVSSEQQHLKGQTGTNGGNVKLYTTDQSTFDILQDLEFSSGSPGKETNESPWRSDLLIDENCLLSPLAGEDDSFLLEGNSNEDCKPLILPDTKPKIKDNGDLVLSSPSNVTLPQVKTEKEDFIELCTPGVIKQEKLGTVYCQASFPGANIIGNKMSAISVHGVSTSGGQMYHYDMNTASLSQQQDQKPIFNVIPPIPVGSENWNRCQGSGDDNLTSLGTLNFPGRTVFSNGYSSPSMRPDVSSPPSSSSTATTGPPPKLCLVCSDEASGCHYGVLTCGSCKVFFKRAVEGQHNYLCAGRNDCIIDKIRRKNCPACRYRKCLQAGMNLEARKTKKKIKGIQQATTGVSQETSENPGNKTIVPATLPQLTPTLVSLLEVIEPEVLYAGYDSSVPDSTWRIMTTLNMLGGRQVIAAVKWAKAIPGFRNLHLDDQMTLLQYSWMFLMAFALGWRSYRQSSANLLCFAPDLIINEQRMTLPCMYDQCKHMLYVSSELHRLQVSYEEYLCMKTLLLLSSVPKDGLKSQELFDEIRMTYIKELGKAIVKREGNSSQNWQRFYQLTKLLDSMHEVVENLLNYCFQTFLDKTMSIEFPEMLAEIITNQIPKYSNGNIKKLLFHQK
Description: Glucocorticoid receptor (GR) activation potency was assessed using a HeLa cell line containing the MMTV-bla reporter (MMTV-bla HeLa CELLSENSOR®, Invitrogen Corp., Carlsbad, Calif.). This cell line was stably transfected with an expression construct containing β-lactamase cDNA under control of the MMTV response element previously identified as a glucocorticoid receptor response element. […] All assays were performed as 10-point dose responses using a half log-fold dilution series starting with a maximum compound concentration of 100 nM. The compounds were incubated for 5 hours. The activation of endogenous GR leads to expression of the reporter β-lactamase which is detected by the conversion of a FRET substrate in a ratiometric assay format. This functional assay allows for measurement of receptor agonism by compounds and can be used to determine compound potency and selectivity. Assay reproducibility was determined by calculating Z′ values for untreated versus maximum stimulation.

[2] = patients, applied locally via eye drops, compared to dexamethasone, prednisolone and fluorometholone; cited from earlier work
[3] = molecular target: T2, fusion protein GAL4(DBD)-MR(LBD) (Homo sapiens, UniProt P08235); experiment: Mineralocorticoid receptor transactivation, UAS-bla HEK 293T CELLSENSOR β-lactamase reporter, agonist mode; format: cell-based; conditions: for % Activation at 100 nM: MR, UAS-bla HEK 293T, agonist mode, 16 hours
T2 sequence (P08235 726-964 limits assumed): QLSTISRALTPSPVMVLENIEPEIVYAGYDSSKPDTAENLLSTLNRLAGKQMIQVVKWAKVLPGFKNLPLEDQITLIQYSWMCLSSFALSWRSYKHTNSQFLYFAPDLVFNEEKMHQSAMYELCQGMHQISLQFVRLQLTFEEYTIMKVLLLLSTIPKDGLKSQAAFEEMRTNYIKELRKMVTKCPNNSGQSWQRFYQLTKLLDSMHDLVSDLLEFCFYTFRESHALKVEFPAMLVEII
Description: Mineralocorticoid receptor (MR) activation potency was assessed using a HEK 293T cell line containing the UAS-bla reporter (UAS-bla HEK 293T CELLSENSOR®). This cell line was stably cotransfected with an expression construct containing β-m lactamase cDNA under control of the GAL4 Upstream Activator Sequence (UAS) and another expression construct encoding for the fusion protein GAL4(DBD)-MR(LBD). […] All assays were performed as 10-point dose responses using a half log-fold dilution series starting with a maximum compound concentration of 100 nM. The compounds were incubated for 16 hours. The activation of the fusion protein GAL4(DBD)-MR(LBD) leads to expression of the reporter β-lactamase which is detected by the conversion of a FRET substrate in a ratiometric assay format. This functional assay allows for measurement of receptor agonism by compounds and can be used to determine compound potency and selectivity. Assay reproducibility was determined by calculating Z′ values for untreated versus maximum stimulation.

C[C@]12CCC(=O)C=C1CC[C@@H]1[C@@H]2[C@@H](O)C[C@@]2(C)[C@H]1CC[C@]2(O)C(=O)CO
% Activation at 100 nM ([1]; MMTV-bla HeLa, agonist mode): 43%

C[C@]12CCC(=O)C=C1CC[C@@H]1[C@@H]2[C@@H](O)C[C@@]2(C)[C@H]1CC[C@]2(OC(=O)c1ccccc1)C(=O)CO [cortisol 17-benzoate]
greater potency compared to the parent molecule cortisol [1]: about 30 fold

C[C@]12CCC(=O)C=C1CC[C@@H]1[C@@H]2[C@@H](O)C[C@@]2(C)[C@H]1CC[C@]2(OC(=O)C1CCCC1)C(=O)CO [cortisol 17-cyclopentanoate]
greater potency compared to the parent molecule cortisol [1]: about 30 fold

C[C@]12CCC(=O)C=C1CC[C@@H]1[C@@H]2[C@@H](O)C[C@@]2(C)[C@H]1CC[C@]2(O)C(=O)CO [cortisol]
effect on intraocular pressure [2]: minimal effect on intraocular pressure

C[C@]12CCC(=O)C=C1CC[C@@H]1[C@@H]2[C@@H](O)C[C@@]2(C)[C@H]1CC[C@]2(OC(=O)CCS(=O)(=O)c1ccccc1)C(=O)CO [drawing 14]
% Activation at 100 nM ([1]; MMTV-bla HeLa, agonist mode): 17%
EC50 ([1]; MMTV-bla HeLa, agonist mode, 5 hours incubation, max concentration 100 nM, one experiment in duplicate): > 100 nM

C[C@]12CCC(=O)C=C1CC[C@@H]1[C@@H]2[C@@H](O)C[C@@]2(C)[C@H]1CC[C@]2(OC(=O)Cc1ccc(Br)cc1)C(=O)CO [drawing 15]
% Activation at 100 nM ([1]; MMTV-bla HeLa, agonist mode): 0%

C[C@]12CCC(=O)C=C1CC[C@@H]1[C@@H]2[C@@H](O)C[C@@]2(C)[C@H]1CC[C@]2(OC(=O)CCS(=O)(=O)c1ccccc1)C(=O)CO [drawing 18]
EC50 [3]: 3.48 nM
% Activation at 100 nM [3]: 79%

C[C@]12CCC(=O)C=C1CC[C@@H]1[C@@H]2[C@@H](O)C[C@@]2(C)[C@H]1CC[C@]2(OC(=O)Cc1ccc(Br)cc1)C(=O)CO [drawing 19]
EC50 [3]: 5.53 nM
% Activation at 100 nM [3]: 77%
